One data set concerns Brachiaria plantophylla. In words: Herbicidal action, visual scoring. Particulars: Table 24; post-emergence; scoring 6 weeks after application; g of A.S./ha by row: r6 45, r7 22.5, r8 60, r9 30, r11 22.5 + 30, r13 60, r14 30, r16 22.5 + 30, r18 450, r20 22.5 + 450. The format is in vivo. As for the experimental part:
(§1) The herbicidal activity of the active substances or active substance mixtures was scored visually with the aid of the treated parcels in comparison with untreated control parcels. Damage to and development of all above-ground parts of plants was recorded here. Scoring was carried out on a percentage scale (100% action=all plants died; 50% action=50% of the plants and green plant parts died; 0% action=no discernible action=like control parcels. The mean of the scoring values of 4 parcels in each case was taken.
Seeds or rhizome pieces of monocotyledonous and dicotyledonous weeds are placed in sandy loam soil in pots, covered with soil and grown in the greenhouse under good growth conditions (temperature, humidity, water supply). Three weeks after sowing, the test plants in the three-leaf stage are treated with the compositions according to the invention. The compositions according to the invention which are formulated as wettable powders or as emulsion concentrates are sprayed in various dosages on the green parts of the plants at an application rate of 600 to 800 l of water/ha (converted). After the test plants have remained in the greenhouse for about 3 to 4 weeks under optimal growth conditions, the effect of the products is scored visually by comparison with untreated controls. When applied post-emergence, too, the compositions according to the invention have a good herbicidal activity against a broad spectrum of economically important grass weeds and broad-leaved weeds.
(§2) Crop plants were raised outdoors under natural outdoor conditions on plots in which seeds or rhizome sections of typical harmful plants had been sown or the natural weed infestation was used. The treatment with the compositions according to the invention was carried out after the emergence of the harmful plants and the crop plants, as a rule in the 2 to 4-leaf stage; in some cases (as indicated) the application of individual active substances or active substance combinations was carried out pre-emergence (cf. Example 1) or as a sequence treatment, in some cases pre-emergence and/or post-emergence.
After the application, e.g. 2, 4, 6 and 8 weeks after application, the action of the preparations was scored visually in comparison with untreated controls (cf. score in Example 1). […] The crop plants, however, were not damaged or were only insignificantly damaged as a result of the treatment with the herbicidal compositions.

Another data set deals with rice. In words: Damage on crop plants (selectivity), visual scoring. The format is in vivo. Particulars: Table 24; post-emergence; scoring 6 weeks after application; g of A.S./ha by row: r6 45, r7 22.5, r8 60, r9 30, r11 22.5 + 30, r13 60, r14 30, r16 22.5 + 30, r18 450, r20 22.5 + 450. As for the experimental part: as §1, §2
After the application, e.g. 2, 4, 6 and 8 weeks after application, the action of the preparations was scored visually in comparison with untreated controls (cf. score in Example 1). […]

With `COP(=S)(OC)SCC(=O)N(c1ccc(Cl)cc1)C(C)(C)C` [(B1.6.11), anilofos], the “Herbicidal action Brachiaria plantophylla” value in the data set on Brachiaria plantophylla came out at 35%. Further, in the data set on rice, the Damage on rice is given as 8%.

These data come from patent US6486096B1, “Herbicidal compositions with acylated aminophenylsulfonylureas” (priority 1998, dated 2002).
